In US20170239318A1, “COMPOSITONS AND METHODS FOR CARTILAGE DEFECT REPAIR USING A RHAMM-MIMETIC PEPTIDE” (New York University, priority 2014, published 2017):
Where two headings read alike, the source gives them in different places.

Tests used:
[1] = system: RHAMM over-expressing LR21 cells; assay: in vitro random motility assay (scratch wound, HA fragment-stimulated cell migration); type: cell-based; settings: 50 μg/mL peptide with 500 ng/mL 30-mer HA fragments, 24 hours; relative to PBS control, p<0.05
Experimental: FIG. 2: Effect of peptide 15-1 on fibroblast migration, using an in vitro random motility assay. RHAMM over-expressing LR21 cells were plated on a fibronectin-coated surface in Dulbecco's Modified Eagles Medium (DMEM) with 10% fetal bovine serum (FBS). The following day medium was changed to DMEM with 1% FBS, 50 μg/ml peptide, 500 ng/ml 30-mer HA fragment. Random motility was measured microscopically. “Old P15-1” refers to a peptide batch that was used in previous experiments. As control (ctr), PBS was used instead of peptide.
Functional testing of peptide 15-1 using an in vitro random motility assay. The functional testing of peptide 15-1 using an in vitro random motility assay was done essentially as previously described (16). Briefly, RHAMM over-expressing LR21 cells were plated at 7×10^5 cells/well in fibronectin coated six-well plates using Dulbecco's modified Eagle's medium (DMEM) (Gibco BRL/Invitrogen, Carlsbad, Calif.) containing 10% fetal calf serum (FCS). Confluence of cell monolayers after 24 hours was between 80% and 90%. […] The number of cells that had migrated into the scratch wounds was quantified using NIH image processing software ImageJ as follows. A box adjusted to reach each opposing edge of the wound was placed over 3 randomly assigned parts of each scratch wound and the numbers of cells within the box were counted. […]

[2] = system: serum-starved human articular chondrocytes; assay: mRNA levels of catabolic and articular cartilage markers in serum-starved human articular chondrocytes (real time PCR); type: cell-based; settings: 48 h
Experimental: FIG. 6: RHAMM-mimetic peptide at concentrations up to 5 μg/ml decreased the mRNA levels of iNOS and MMP-13 (catabolic markers; A) and increased the mRNA levels of type II collagen (α1(II), articular cartilage marker, B) in serum-starved human articular chondrocytes. […] In addition, […] of peptide decreased the mRNA levels of type II collagen. Human articular chondrocytes after being serum-starved for 24 h were treated with RHAMM-mimetic peptide of SEQ ID NO:1 (Pep.) at various concentrations (0, 26, 52, 520, 1000, 5000 ng/ml) for 48 h. mRNA levels of iNOS, MMP-13, and type II collagen were determined by real time PCR using SYBR Green and normalized to the 18 S RNA. mRNA levels are expressed as relative units with the mRNA levels of untreated cells set as 1. Data are expressed as mean±SD from the results of three different cultures.
Chondrocyte Cultures. Human articular chondrocytes were isolated from articular cartilage samples obtained from patients (donor age range 48-67) undergoing total knee replacement surgery at NYU Hospital for Joint Diseases. Knee cartilage was harvested from regions with no macroscopically evident degeneration. The collection of tissue from patients undergoing knee replacement surgery was approved by the Institutional Regulatory Board (IRB) at NYU School of Medicine. Human chondrocytes were isolated from these cartilage samples and cultured as described by us previously (24). Before human chondrocyte cultures were treated with inflammatory stimulus (interleukin-1beta (IL-1β), chondrocyte cultures were switched to serum-free medium for 24 h followed by treatment with the inflammatory stimulus. Cells were treated with 10 ng/ml human recombinant IL-1β in phosphate-buffered saline (PBS)/0.1% BSA. In addition, serum-starved cells were treated with RHAMM-mimetic peptide at various concentrations, HMWHA (ORTHOVISC) at a concentration of 1000 μg/ml, and a combination at four different weight ratios (1:60, 1:30, 1:15, 1:8) of peptide and HMWHA. Cells were treated with these various agents for 24 or 48 h under serum-free conditions.
(§1) RT-PCR and Real-Time PCR Analysis. mRNA levels of catabolic markers (cyclooxygenase (Cox)-2, interleukin (IL)-6, inducible nitric oxide synthase (iNOS), matrix metalloproteinase (MMP)-13) and articular cartilage markers (aggrecan, type II collagen) were determined by real time PCR analysis as described by us previously (25, 26). Briefly, total RNA was isolated from chondrocyte cultures using the RNEASY minikit (Qiagen, Valencia, Calif.). One μg of total RNA was reverse transcribed by using an OMNISCRIPT RT kit (Qiagen). A 1:100 dilution of the resulting cDNA was used as the template to quantify the relative content of mRNA by real-time PCR (STEPONEPLUS™ System; Applied Biosystems, Foster City, Calif.) with the appropriate primers and SYBR Green. PCRs were performed with a SYBR Green PCR Master Mix kit (Applied Biosystems), at 95° C. for 10 min followed by 40 cycles at 95° C. for 15 s and 60° C. for 1 min, and 1 cycle at 95° C. for 15 s and 60° C. for 1 min. The 18 S RNA was amplified at the same time and used as an internal control. The cycle threshold values for 18 S RNA and the samples were measured and calculated by computer software.

[3] = system: IL-1β-treated human articular chondrocytes; assay: HA released into the medium of IL-1β-treated human articular chondrocytes (ELSA); type: cell-based; settings: 10 ng/ml IL-1β, 48 h
Experimental: FIG. 7: HA concentration in the medium of human articular chondrocytes is increased by IL-1β. A: RHAMM-mimetic peptide at a concentration of 0.026 μg/ml or 0.052 μg/ml (Pep0.026, Pep0.052) had no effect on the HA release into the medium of IL-1β-treated chondrocytes. […] Human articular chondrocytes were serum-starved for 24 h followed by treatment of these cells with 10 ng/ml IL-1β and various concentrations of the RHAMM-mimetic peptide for 48 h. HA released into the medium was measured by ELSA (ELISA-like) specific assay.
Chondrocyte Cultures. Human articular chondrocytes were isolated from articular cartilage samples obtained from patients (donor age range 48-67) undergoing total knee replacement surgery at NYU Hospital for Joint Diseases. Knee cartilage was harvested from regions with no macroscopically evident degeneration. The collection of tissue from patients undergoing knee replacement surgery was approved by the Institutional Regulatory Board (IRB) at NYU School of Medicine. Human chondrocytes were isolated from these cartilage samples and cultured as described by us previously (24). […]
Analysis of HA concentration in Chondrocyte Culture Medium. […] Conditioned media (approximately 1 ml each sample) from chondrocyte cultures were stored frozen at −20° C. until analyzed. […]

[4] = system: IL-1β-treated human articular chondrocytes; assay: mRNA levels of Cox-2 and type II collagen in IL-1β-treated human articular chondrocytes (real time PCR); type: cell-based; settings: peptide at concentrations up to 64 μg/ml (16, 32, 64), 10 ng/ml IL-1β, 24 h
Experimental: FIG. 8: RHAMM-mimetic peptide at concentrations (16, 32, 64 μg/ml) decreased the mRNA levels of Cox-2 (catabolic marker; A) and increased the mRNA levels of type II collagen (α1 (II), articular cartilage marker, B) in IL-1β-treated human articular chondrocytes. […] Data are expressed as mean±SD from three different cultures.
Chondrocyte Cultures. Human articular chondrocytes were isolated from articular cartilage samples obtained from patients (donor age range 48-67) undergoing total knee replacement surgery at NYU Hospital for Joint Diseases. Knee cartilage was harvested from regions with no macroscopically evident degeneration. […]
RT-PCR and Real-Time PCR Analysis. mRNA levels of catabolic markers (cyclooxygenase (Cox)-2, interleukin (IL)-6, inducible nitric oxide synthase (iNOS), matrix metalloproteinase (MMP)-13) and articular cartilage markers (aggrecan, type II collagen) were determined by real time PCR analysis as described by us previously (25, 26). […] A 1:100 dilution of the resulting cDNA was used as the template to quantify the relative content of mRNA by real-time PCR (STEPONEPLUS™ System; Applied Biosystems, Foster City, Calif.) with the appropriate primers and SYBR Green. […] The cycle threshold values for 18 S RNA and the samples were measured and calculated by computer software.

[5] = system: SW982 synovial cell line; assay: mRNA levels of catabolic markers in IL-1β-treated SW982 synovial fibroblasts (real time PCR); type: cell-based; settings: 52 ng/ml peptide, 10 ng/ml IL-1β, 24 h
Experimental: FIG. 9: RHAMM-mimetic peptide decreased the mRNA levels of catabolic markers (Cox-2, IL-6, MMP-13) in the SW982 synovial cell line. SW982 cells after being serum-starved for 24 h were treated with RHAMM-mimetic peptide of SEQ ID NO:1 (Pep) at a concentration of 52 ng/ml for 24 h. mRNA levels of Cox-2, IL-6 and MMP-13 were determined by real time PCR using SYBR Green and normalized to the 18 S RNA. mRNA levels are expressed as relative units with the mRNA levels of untreated cells set as 1. Data are expressed as mean±SD from the results of three different cultures.
The synovial fibroblast cell line SW982 was used between passage 3 and passage 7 and cultured in DMEM containing 10% fetal calf serum until the cells reached confluence. Cells were then serum-starved for 24 h and then treated with 10 ng/ml recombinant human IL-1β and 52 ng/ml RHAMM-mimetic peptide for 48 h.
as §1

[6] = molecular target: T1, recombinant RHAMM (Homo sapiens, UniProt O75330); settings: cited from earlier work
T1 sequence (O75330 1-724): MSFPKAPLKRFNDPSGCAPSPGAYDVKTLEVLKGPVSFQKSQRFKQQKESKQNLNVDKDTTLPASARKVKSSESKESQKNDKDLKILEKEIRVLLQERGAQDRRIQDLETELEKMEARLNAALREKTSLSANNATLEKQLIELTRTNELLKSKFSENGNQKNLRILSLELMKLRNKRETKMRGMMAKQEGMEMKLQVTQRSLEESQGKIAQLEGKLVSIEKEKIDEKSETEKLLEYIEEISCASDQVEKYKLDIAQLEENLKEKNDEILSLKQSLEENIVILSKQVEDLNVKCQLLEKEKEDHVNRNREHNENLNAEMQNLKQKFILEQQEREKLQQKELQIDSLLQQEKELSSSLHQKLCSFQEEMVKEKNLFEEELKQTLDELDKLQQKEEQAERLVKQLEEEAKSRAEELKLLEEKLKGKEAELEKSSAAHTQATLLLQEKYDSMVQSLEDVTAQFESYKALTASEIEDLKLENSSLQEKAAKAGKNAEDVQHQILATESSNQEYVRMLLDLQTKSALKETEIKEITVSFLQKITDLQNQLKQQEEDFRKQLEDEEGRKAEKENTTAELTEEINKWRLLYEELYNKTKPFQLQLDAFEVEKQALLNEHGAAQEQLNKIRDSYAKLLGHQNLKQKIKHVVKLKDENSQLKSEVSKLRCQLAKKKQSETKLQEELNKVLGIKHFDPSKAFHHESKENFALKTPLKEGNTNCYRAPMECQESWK

[7] = system: full-thickness excisional rat wound; settings: cited from earlier work
[8] = system: skin wound repair; settings: cited from earlier work
[9] = all concentrations tested (0.026, 0.052, 0.520, 1, 5, 800 μg/ml), vs untreated cells
[10] = applied once to the wound, compared to scrambled, negative control peptide

Sequence: STMMSRSHKTRSHHV [RHAMM-mimetic peptide]
- reduction in fibroblast migration (number of cells migrated into the scratch wounds) [1]: statistically significant
- decrease of mRNA levels of the catabolic markers (iNOS, MMP-13) ([2]; 800 μg/ml compared with lower concentrations of the peptide): not as effective
- type II collagen mRNA level ([2]; 800 μg/ml, compared to untreated cells): decreased
- MMP-13 mRNA levels [2, 9]: decreased
- iNOS mRNA levels [2, 9]: decreased
- type II collagen mRNA levels ([2]; concentrations up to 5 μg/ml, vs untreated cells): increased
- HA concentration in conditioned medium (increase caused by IL-1β) ([3]; peptide 26 ng/ml or 52 ng/ml): little effect
- HA concentration in conditioned medium (increase caused by IL-1β) ([3]; peptide 17 μg/ml): significantly reduced
- Cox-2 mRNA levels [4]: decreased
- type II collagen mRNA level [4]: increased
- Cox-2 mRNA levels [5]: markedly reduced
- IL-6 mRNA levels [5]: markedly reduced
- MMP-13 mRNA levels [5]: markedly reduced
- binding of HA fragments to recombinant RHAMM [6]: markedly reduced
- scarless healing ([7]; applied once to a full-thickness excisional rat wound): promoted a form of scarless healing
- blood vessel density [7, 10]: reduced
- fibroblast number [7, 10]: reduced
- macrophage number [7, 10]: reduced
- type of healing / fibrosis ([7]; excisional skin wounds, rat model): regenerative type of healing with reduced fibrosis
- wound repair ([8]; RHAMM−/− mice): not
- wound repair ([8]; wild type mice): altered
